Experimental data reported in patent US20060030537A1, “Ceramide kinase and uses thereof” (priority 2004, published 2006).

Experiments:
A549 cells = format: cell-based
ceramide kinase = test: Ceramide kinase assay on lysates of treated or transfected A549 cells; format: cell-based, human; conditions: 26 hours after transfection
Description: FIGS. 5A-5C. IL-1β and calcium ionophore increase ceramide-1-phosphate production and ceramide kinase activity. FIGS. 5A and 5B. The effect of IL-1 and A23187 on C-1-P levels and AA liberation. A549 cells (2×10^5) were labeled overnight with 10 μCi/mL [^3H]-arachidonic acid (10 nM), washed, and then treated with either 2.5 ng/mL of IL-1β (FIG. 5A) or 1 μg/mL of A23187 (FIG. 5B) for the indicated times. Two hours prior to Bligh-Dyer extraction, cells were chased with 20 μM of D-e-C6 NBD-ceramide (Matreya). At the appropriate times, media was taken for AA analysis, and lipids from the cells were extracted by the Bligh-Dyer method followed by analysis of NBD-C-1-P formation. Data are presented as % control of C-1-P levels (J) and AA release (B). Data are representative of three separate determinations on 2 separate occasions. FIG. 5C. IL-1β and calcium ionophore increase ceramide kinase activity. A549 cells (5×10^5) were treated with either 2.5 ng/mL of IL-1β for 3.5 hours or 1 μg/mL of A23187 for 5 minutes. Cells were then washed, lysed in assay buffer, and assayed for ceramide kinase activity. Data is presented as % control of ceramide kinase activity (Arbitrary densitometry units of fluorescent NBD-C-1-P produced/min/mg of total cellular protein). Data are representative of three separate determinations on 2 separate occasions.
FIGS. 6A-6B. Ceramide kinase RNAi downregulates endogenous ceramide kinase activity and mRNA levels. FIG. 6A. The effect of ceramide kinase RNAi on endogenous ceramide kinase activity. […] Following the same procedure as outlined in FIG. 6A, total RNA was extracted and analyzed via logarithmic reverse-transcriptase polymerase chain reaction for human ceramide kinase and 18s ribosomal RNA. […]
Ceramide Kinase Assay: Ceramide kinase activity was measured as described previously with slight modifications (Bajjalieh, S., and Batchelor, R. (2001) Methods Enzymol. 311, 207-215). […] Following Bligh-Dyer extraction, lipids were separated by thin layer chromatography, and NBD-C-1-P was visualized/quantified by fluorescent phosphorimaging.

L929 fibroblasts = test: PGE2 synthesis in L929 fibroblasts; format: cell-based; conditions: L929 fibroblasts
Description: FIGS. 3A-3B. FIG. 3A. The effects of ceramide-1-phosphate on TXB2 synthesis. A549 cells (1×10^5) were treated with D-e-C16 ceramide-1-phosphate (1 μM) solubilized in 2% dodecane/98% ethanol (final concentration in treatments was 0.002% dodecane/0.098% ethanol (EtOH)) for the indicated times. The results are presented as % control of TXB2 controlled for equivalent number of cells by MTT assay. Data are representative of 3 separate determinations on 2 separate occasions. FIG. 3B. The effects of ceramide-1-phosphate on AA release and PGE2 synthesis in L929 fibroblasts. L929 cells (5×10^4) were labeled overnight with 5 μCi/mL [^3H]-arachidonic acid (5 nM). Cells were washed and placed in DMEM supplemented with 2% fetal bovine serum for two hours. Cells were then treated with 2.5 μM D-e-C16 ceramide-1-phosphate (solubilized in 98% ethanol/2% dodecane) for the indicated times. […]
Quantification of prostaglandin E2 and thromboxane B2 synthesis: For measurement of PGE2 and TXB2 levels, aliquots of media were taken at indicated time points and assayed according to manufacturer's instructions using the prostaglandin E2 and thromboxane B2 monoclonal EIA Kit from Cayman Chemical. […] Results were controlled for equivalent number of cells quantified by MTT assay.

## ceramide kinase RNAi: 21-nucleotide duplex, human ceramide kinase RNAi starting 142 nucleotides from start codon (SEQ ID NO: 3 and 4) (chain 1 UGCCUGCUCUGUGCCUGUATT; chain 2 UACAGGCACAGAGCAGGCATT; chemistry not given here)
A549 cells
  effects on cell number: without effects
Ceramide kinase
  decrease of endogenous ceramide kinase activity: 67%
L929 fibroblasts
  inhibition of PGE2 synthesis in response to IL-1β: over 60%
